No end group written: not given here.
Columns and labels:
HUVECs = test: HUVEC wound migration assay; type: cell-based, human
Method: Specifically, HUVECs inoculated on a 60-mm culture dish to confluence were wounded with the end of a pipette, and treated with linker polypeptide (10^−1˜10^2 nM) or recombinant CTGF (recombinant human CTGF, rhCTGF; BioVendor R&D, NC, USA) (10^1 or 10^2 nM) in Medium 199 to which 1% serum and 1 mM thymidine were added. After culturing 16 hours, the number of cells that migrated over a reference line was counted to quantify the degree of migration, and the cells were photographed with 50× magnification.
First, 20 ng/ml of VEGF-A was administered to HUVECs, the degree of cell proliferation, cell migration, or tube formation was confirmed by the <Experiment method 9>, and the results are shown in FIGS. 22 to 24. At this time, FPRL1 antagonist WRW4 was additionally added.

FPRL1 in HUVECs = target: T1, FPRL1 in HUVECs (Homo sapiens, UniProt P25090); test: Flow cytometry binding of biotinylated linker polypeptide in HUVECs
T1 construct: endogenous in cells; host or cells: HUVECs
T1 sequence (P25090 1-351): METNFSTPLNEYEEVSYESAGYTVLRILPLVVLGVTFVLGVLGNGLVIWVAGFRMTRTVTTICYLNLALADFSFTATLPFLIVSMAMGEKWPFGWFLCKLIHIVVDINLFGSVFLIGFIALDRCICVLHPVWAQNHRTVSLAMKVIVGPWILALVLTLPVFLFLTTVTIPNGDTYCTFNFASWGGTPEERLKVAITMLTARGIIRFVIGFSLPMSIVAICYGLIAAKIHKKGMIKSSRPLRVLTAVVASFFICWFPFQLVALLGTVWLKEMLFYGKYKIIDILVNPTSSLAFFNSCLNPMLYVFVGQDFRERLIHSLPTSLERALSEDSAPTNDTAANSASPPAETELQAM
Method: To evaluate the degree of binding of linker polypeptide corresponding to the link region of human CTGF, linker polypeptide was labeled using a EZ-Link Micro Sulfo-NHS-LC-Biotinylation kit (Pierce Chemical Co., Rockford, Ill., USA) according to the manufacturer's instruction. The linker polypeptide was cultured at room temperature for 1 hour in PBS with 9 mM sulfo-NHS-LC-biotin (Pierce Chemical Co., Rockford, Ill., USA). During biotinylation, vector/RBL cells, FPR/RBL cells, FPRL1/RBL cells, or HUVECs were treated with trypsin, and collected, and then, treated with rabbit serum at room temperature for 30 minutes. After culturing the biotinylated linker polypeptide in the ice for 30 minutes, the cells were shortly washed with ice-cold PBS, cultured with antihuman fluoroscein-5-isothiocyanate (FITC)-conjugated streptavidin (Pierce Chemical Co.), and then, washed with ice-cold PBS, and fixed with 1% formaldehyde solution. And then, they were analyzed using FACS Caliber system (BD Biosciences, San Jose, Calif.) with CellQuest and WinMDI 2.9 software according to previously known method (He, R., Sang, H. & Ye, R. D. Serum amyloid A induces IL-8 secretion through a G protein-coupled receptor, FPRL1/LXA4R. Blood 101, 1572-1581, 2003).
It was examined whether the CTGF linker polypeptide binds to FPRL1 in HUVECs as described in the <Experiment method 7>, and the results are shown in FIG. 13. […]

| binding of linker polypeptide in HUVECs (flow cytometry shift) (FPRL1 in HUVECs; 10 nM, 30 minutes, compared to vehicle) | effect of antagonist on linker polypeptide binding in HUVECs (FPRL1 in HUVECs; WRW4 10 uM with 10 nM CTGF linker polypeptide) | Substance | migration of HUVECs (HUVECs; linker polypeptide 10^-1 to 10^2 nM, 16 hours, compared to recombinant CTGF) | effect of antagonist on HUVEC migration induced by VEGF-A (HUVECs; VEGF-A 20 ng/ml, WRW4 10 uM) | effect of antagonist on HUVEC migration induced by CTGF linker polypeptide (HUVECs; WRW4 10 uM) |
| --- | --- | --- | --- | --- | --- |
| average value shifts right |  | EWVCDEPKDQTVVGPALAAYRLEDTFGPDPTMIRANCLV (EWVCDEPKDQTVVGPALAAYRLEDTFGPDPTMIRANCLV-NH2; cysteine pairing not given here) [CTGF linker polypeptide] | induces migration of HUVECs in a concentration-dependent manner more effectively than recombinant CTGF |  |  |
|  | the shift is not observed | WRWWWW (FPRL1 antagonist) [WRW4] |  | the cell migration is not induced | the cell migration is not induced |

Reference: patent US8859496B2, “Pharmaceutical composition using connective-tissue growth factor” (Postech Academy-Industry Foundation, priority 2010, dated 2014)
